Calls of active or inactive are those of the source. No rule for the calls is given here.

In this series the test system is CCRIS mutagenicity, Ames/micronucleus/aberration tests. The series is described as follows: CCRIS mutagenicity studies.
Where [1] appears, read: Test System: AMES SALMONELLA TYPHIMURIUM, Strain/Indicator: TA98, Metabolic Activation: NONE, Method: PREINCUBATION
Setting [2] is: Test System: AMES SALMONELLA TYPHIMURIUM, Strain/Indicator: TA100, Metabolic Activation: NONE, Method: PREINCUBATION
The mark [3] stands for this setting: Test System: AMES SALMONELLA TYPHIMURIUM, Strain/Indicator: TA100, Metabolic Activation: NONE, Method: STANDARD PLATE.
The mark [4] stands for this setting: Test System: MOUSE LYMPHOMA, Strain/Indicator: L5178Y (TK+/TK-), Metabolic Activation: NONE, Method: SUSPENSION/PLATE.
Setting [5] is: Test System: AMES SALMONELLA TYPHIMURIUM, Strain/Indicator: TA98, Metabolic Activation: NONE, Method: STANDARD PLATE.
[6] abbreviates: Test System: AMES SALMONELLA TYPHIMURIUM, Strain/Indicator: TA1537, Metabolic Activation: NONE, Method: STANDARD PLATE.

For `CC(=O)Nc1ccc(/C=N/n2nnc3c([nH]c4ccccc43)c2=O)cc1`, the mutagenic call reads like this: (Test System: AMES SALMONELLA TYPHIMURIUM, Strain/Indicator: TA97, Metabolic Activation: NONE, Method: PREINCUBATION) “active; positive”; (Test System: AMES SALMONELLA TYPHIMURIUM, Strain/Indicator: TA97, Metabolic Activation: RAT, LIVER, S-9, AROCLOR 1254 (10%), Method: PREINCUBATION) “active; positive”; under setting [1], “active; positive”; (Test System: AMES SALMONELLA TYPHIMURIUM, Strain/Indicator: TA98, Metabolic Activation: RAT, LIVER, S-9, AROCLOR 1254 (10%), Method: PREINCUBATION) “active; positive”; under setting [2], “active; positive”; (Test System: AMES SALMONELLA TYPHIMURIUM, Strain/Indicator: TA100, Metabolic Activation: RAT, LIVER, S-9, AROCLOR 1254 (10%), Method: PREINCUBATION) “active; positive”. Also, the mutagenic call by setting is: (Test System: AMES SALMONELLA TYPHIMURIUM, Strain/Indicator: TA102, Metabolic Activation: NONE, Method: PREINCUBATION) “inactive; negative”; (Test System: AMES SALMONELLA TYPHIMURIUM, Strain/Indicator: TA102, Metabolic Activation: RAT, LIVER, S-9, AROCLOR 1254 (10%), Method: PREINCUBATION) “inactive; negative”.

Regarding `O=C1OCC(CBr)=C1Br`, the mutagenic call under setting [3] was “active; positive”.

On to `Nc1nc(N)c(-c2ccccc2)s1`, for which the mutagenic call by setting is: under setting [4], “active; positive. reevaluation of results: inconclusive”; (Test System: MOUSE LYMPHOMA, Strain/Indicator: L5178Y (TK+/TK-), Metabolic Activation: RAT, LIVER, S-9, AROCLOR 1254, Method: SUSPENSION/PLATE) “active; positive. reevaluation of results: inconclusive”.

As for `O=C1c2ccccc2-c2c3c(cc4ccnc1c24)OCO3`, the mutagenic call is “inactive; negative” under setting [1]; “active; positive” (Test System: AMES SALMONELLA TYPHIMURIUM, Strain/Indicator: TA98, Metabolic Activation: RAT, LIVER, S-9, PHENOBARBITAL AND BETA-NAPHTHOFLAVONE, Method: PREINCUBATION); “inactive; negative” under setting [2]; “active; positive” (Test System: AMES SALMONELLA TYPHIMURIUM, Strain/Indicator: TA100, Metabolic Activation: RAT, LIVER, S-9, PHENOBARBITAL AND BETA-NAPHTHOFLAVONE, Method: PREINCUBATION).

With `C=COC(C)=O`, the mutagenic call reads like this: (Test System: AMES SALMONELLA TYPHIMURIUM, Strain/Indicator: TA97, Metabolic Activation: NONE, Method: STANDARD PLATE) “inactive; negative”; (Test System: AMES SALMONELLA TYPHIMURIUM, Strain/Indicator: TA97, Metabolic Activation: RAT, LIVER, S-9, AROCLOR 1254, Method: STANDARD PLATE) “inactive; negative”; under setting [5], “inactive; negative”; (Test System: AMES SALMONELLA TYPHIMURIUM, Strain/Indicator: TA98, Metabolic Activation: RAT, LIVER, S-9, AROCLOR 1254, Method: STANDARD PLATE) “inactive; negative”; under setting [3], “inactive; negative”; (Test System: AMES SALMONELLA TYPHIMURIUM, Strain/Indicator: TA100, Metabolic Activation: RAT, LIVER, S-9, AROCLOR 1254, Method: STANDARD PLATE) “inactive; negative”. The mutagenic call was “inactive; negative” (Test System: AMES SALMONELLA TYPHIMURIUM, Strain/Indicator: TA102, Metabolic Activation: RAT LIVER S-9, PHENOBARBITAL AND 5,6-BENZOFLAVONE, Method: STANDARD PLATE); “active; positive” (Test System: AMES SALMONELLA TYPHIMURIUM, Strain/Indicator: TA102, Metabolic Activation: RAT, LIVER, S-9, AROCLOR 1254, Method: PREINCUBATION); “inactive; negative” (Test System: AMES SALMONELLA TYPHIMURIUM, Strain/Indicator: TA102, Metabolic Activation: RAT, LIVER, S-9, AROCLOR 1254, Method: STANDARD PLATE); “inactive; negative” (Test System: AMES SALMONELLA TYPHIMURIUM, Strain/Indicator: TA2638, Metabolic Activation: RAT LIVER S-9, PHENOBARBITAL AND 5,6-BENZOFLAVONE, Method: STANDARD PLATE); “inactive; negative” (Test System: Ames Salmonella typhimurium, Strain/Indicator: TA98, Metabolic Activation: None, Method: Preincubation); “inactive; negative” (Test System: Ames Salmonella typhimurium, Strain/Indicator: TA98, Metabolic Activation: Rat, Liver, S9, Sodium phenobarbital and 5,6-benzoflavone (10%), Method: Preincubation). Besides, the mutagenic call was “inactive; negative” (Test System: Ames Salmonella typhimurium, Strain/Indicator: TA100, Metabolic Activation: None, Method: Preincubation); “inactive; negative” (Test System: Ames Salmonella typhimurium, Strain/Indicator: TA100, Metabolic Activation: Rat, Liver, S9, Sodium phenobarbital and 5,6-benzoflavone (10%), Method: Preincubation); “inactive; negative” (Test System: Ames Salmonella typhimurium, Strain/Indicator: TA1535, Metabolic Activation: None, Method: Preincubation); “inactive; negative” (Test System: Ames Salmonella typhimurium, Strain/Indicator: TA1535, Metabolic Activation: Rat, Liver, S9, Sodium phenobarbital and 5,6-benzoflavone (10%), Method: Preincubation); “inactive; negative” (Test System: Ames Salmonella typhimurium, Strain/Indicator: TA1537, Metabolic Activation: None, Method: Preincubation); “inactive; negative” (Test System: Ames Salmonella typhimurium, Strain/Indicator: TA1537, Metabolic Activation: Rat, Liver, S9, Sodium phenobarbital and 5,6-benzoflavone (10%), Method: Preincubation). For the same molecule, the mutagenic call was “inactive; negative” (Test System: Ames Salmonella typhimurium, Strain/Indicator: YG7108pin3ERb5, Metabolic Activation: None, Method: Standard plate); “inactive; negative” (Test System: E. COLI, Strain/Indicator: WP2 (PKM101), Metabolic Activation: RAT LIVER S-9, PHENOBARBITAL AND 5,6-BENZOFLAVONE, Method: STANDARD PLATE); “inactive; negative” (Test System: E. COLI, Strain/Indicator: WP2 UVRA (PKM101), Metabolic Activation: RAT LIVER S-9, PHENOBARBITAL AND 5,6-BENZOFLAVONE, Method: STANDARD PLATE); “inactive; negative” (Test System: E. coli, Strain/Indicator: WP2uvrA/pKM101, Metabolic Activation: None, Method: Preincubation); “inactive; negative” (Test System: E. coli, Strain/Indicator: WP2uvrA/pKM101, Metabolic Activation: Rat, Liver, S9, Sodium phenobarbital and 5,6-benzoflavone (10%), Method: Preincubation); “active; positive. reevaluation of results: positive” under setting [4]. Also, the mutagenic call (Test System: Mouse lymphoma, Strain/Indicator: L5178Y (tk+/tk-), Metabolic Activation: Rat, Liver, S-9, Aroclor 1254, Method: Suspension/plate) was “active; positive”.

For the molecule `FC(F)(Cl)Cl`, the mutagenic call is “inactive; negative” (Test System: AMES SALMONELLA TYPHIMURIUM, Strain/Indicator: TA98, Metabolic Activation: NONE, Method: GAS EXPOSURE); “inactive; negative” (Test System: AMES SALMONELLA TYPHIMURIUM, Strain/Indicator: TA98, Metabolic Activation: RAT LIVER S-9, PHENOBARBITAL AND BETA-NAPHTHOFLAVONE (40%), Method: GAS EXPOSURE); “inactive; negative” (Test System: AMES SALMONELLA TYPHIMURIUM, Strain/Indicator: TA100, Metabolic Activation: NONE, Method: GAS EXPOSURE); “inactive; negative” (Test System: AMES SALMONELLA TYPHIMURIUM, Strain/Indicator: TA100, Metabolic Activation: RAT LIVER S-9, PHENOBARBITAL AND BETA-NAPHTHOFLAVONE (40%), Method: GAS EXPOSURE); “inactive; negative” (Test System: AMES SALMONELLA TYPHIMURIUM, Strain/Indicator: TA1535, Metabolic Activation: NONE, Method: GAS EXPOSURE); “inactive; negative” (Test System: AMES SALMONELLA TYPHIMURIUM, Strain/Indicator: TA1535, Metabolic Activation: RAT LIVER S-9, PHENOBARBITAL AND BETA-NAPHTHOFLAVONE (40%), Method: GAS EXPOSURE). For the same molecule, the mutagenic call reads like this: (Test System: AMES SALMONELLA TYPHIMURIUM, Strain/Indicator: TA1537, Metabolic Activation: NONE, Method: GAS EXPOSURE) “inactive; negative”; (Test System: AMES SALMONELLA TYPHIMURIUM, Strain/Indicator: TA1537, Metabolic Activation: RAT LIVER S-9, PHENOBARBITAL AND BETA-NAPHTHOFLAVONE (40%), Method: GAS EXPOSURE) “inactive; negative”; (Test System: E.COLI, Strain/Indicator: WP2UVRA, Metabolic Activation: NONE, Method: GAS EXPOSURE) “inactive; negative”; (Test System: E.COLI, Strain/Indicator: WP2UVRA, Metabolic Activation: RAT LIVER S-9, PHENOBARBITAL AND BETA-NAPHTHOFLAVONE (40%), Method: GAS EXPOSURE) “inactive; negative”.

Regarding `CN(C)CCNC(=O)c1cccc2cc3ccccc3nc12`, the mutagenic call under setting [6] is “active; positive”.

For the molecule `COc1cc(NS(C)(=O)=O)ccc1Nc1c2ccccc2nc2cc(N=[N+]=[N-])ccc12`, the mutagenic call under setting [6] was “active; positive”.

As to `BrCc1c2ccccc2cc2ccc3ccccc3c12`, the mutagenic call is, setting by setting: under setting [5], “active; positive”; under setting [3], “active; positive”.

The record behind these values is PubChem BioAssay AID1259407 (Chemical Carcinogenesis Research Information System (CCRIS), 2018).
